The source of these data is patent US4115385A, “Antibacterial 3-(5-tetrazolyl) penam compounds” (Pfizer Inc., priority 1977, dated 1978).

A word on the MIC: it is the lowest concentration that inhibits growth of the organism.

Converted amounts (≈) assume the structure as drawn. Where only a bound is given, the exact number is not on record here.

The subject of one assay is Streptococcus pyogenes. As to the kind of experiment: In vitro minimum inhibitory concentration (MIC) vs. Strep. pyogenes. Format: cell-based. To be noted: Streptococcus pyogenes, read-out: MIC vs. Strep. pyogenes. A digest of the protocol:
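Broth inoculated with bacteria and test antibiotic, incubated overnight and read visually; MIC is the lowest concentration preventing turbidity. Test preparations also contain some of the corresponding tetrazole tautomer.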
Regarding `CC1(C)S[C@@H]2[C@H](NC(=O)[C@H](NC(=O)CNS(C)(=O)=O)c3ccccc3)C(=O)N2[C@H]1c1nn[nH]n1`, the MIC was below 0.1 µg/mL.

On to `CCCS(=O)(=O)N[C@@H](C(=O)N[C@@H]1C(=O)N2[C@@H]1SC(C)(C)[C@@H]2c1nn[nH]n1)c1ccc(O)cc1` [6-(D-2-[Propanesulfonamido]-2-[p-hydroxyphenyl]acetamido-)-2,2-dimethyl-3-(5-tetrazolyl)penam], for which the MIC came out at 0.1 µg/mL (≈ 0.202 µM).

With `CC(=N)NCC(=O)N[C@@H]1C(=O)N2[C@@H]1SC(C)(C)[C@@H]2c1nnn[nH]1` [2-(acetamidino)acetyl], the MIC is below 0.1 µg/mL.

Turning to `CC1(C)S[C@@H]2[C@H](NC(=O)Nc3ccccc3)C(=O)N2[C@H]1c1nnn[nH]1` [3-phenylcarbamoyl, 6-(3-Phenylureido)-2,2-dimethyl-3-(5-tetrazolyl)penam], the MIC was below 0.1 µg/mL.

As to `CCNC(=O)NCC(=O)N[C@@H](C(=O)N[C@@H]1C(=O)N2[C@@H]1SC(C)(C)[C@@H]2c1nnn[nH]1)c1ccccc1` [6-(D-2-[2-(3-Ethylureiod)acetamido]-2-phenylacetamido)-2,2-dimethyl-3-(5-tetrazolyl)penam], the MIC was below 0.1 µg/mL.

As for `CC1(C)S[C@@H]2[C@H](NC(=O)[C@H](NC(=O)CNC(=N)c3ccc([N+](=O)[O-])cc3)c3ccccc3)C(=O)N2[C@H]1c1nnn[nH]1`, the MIC is below 0.1 µg/mL.

Consider `CC1(C)S[C@@H]2[C@H](NC(=O)[C@H](NC(=O)c3cccs3)c3ccccc3)C(=O)N2[C@H]1c1nnn[nH]1`, for which the MIC was below 0.1 µg/mL.

As for `CC1(C)S[C@@H]2[C@H](NC(=O)CNC(=O)c3ccccc3)C(=O)N2[C@H]1c1nn[nH]n1` [2-(benzamido)acetyl, 6-(2-[Benzamido]acetamido)-2,2-dimethyl-3-(5-tetrazolyl)penam], the MIC came to 0.1 µg/mL (≈ 0.249 µM).

For `CCOC(=O)NCC(=O)N[C@@H](C(=O)N[C@@H]1C(=O)N2[C@@H]1SC(C)(C)[C@@H]2c1nnn[nH]1)c1ccccc1`, the MIC was below 0.1 µg/mL.

Turning to `CC(=N)NCCC(=O)N[C@@H](C(=O)N[C@@H]1C(=O)N2[C@@H]1SC(C)(C)[C@@H]2c1nnn[nH]1)c1ccccc1`, the MIC was below 0.1 µg/mL.

As for `CC1(C)S[C@@H]2[C@H](NC(=O)[C@H](NC(=O)CNC(=N)c3nc4ccccc4s3)c3ccccc3)C(=O)N2[C@H]1c1nnn[nH]1`, the MIC is below 0.1 µg/mL.

`CC1(C)S[C@@H]2[C@H](NC(=O)[C@H](NC(=O)CNC(=N)c3ccccc3)c3ccccc3)C(=O)N2[C@H]1c1nnn[nH]1` [6-(D-2-[2-(Benzamidino)acetamido]-2-phenylacetamido)-2,2-dimethyl-3-(5-tetrazolyl)penam]: the MIC is below 0.1 µg/mL.

Turning to `CC1(C)S[C@@H]2[C@H](NC(=O)[C@H](N)c3ccc(O)c(Cl)c3)C(=O)N2[C@H]1c1nnn[nH]1` [6-(D-2-amino-2-[3-chloro-4-hydroxyphenyl]acetamido)-2,2-dimethyl-3-(5-tetrazolyl)penam], the MIC amounted to 0.1 µg/mL (≈ 0.236 µM).

On to `CC1(C)S[C@@H]2[C@H](NC(=O)[C@H](NC(=O)CNS(=O)(=O)c3ccccc3)c3ccccc3)C(=O)N2[C@H]1c1nn[nH]n1`, for which the MIC was below 0.1 µg/mL.

Consider `CC1(C)S[C@@H]2[C@H](NC(=O)[C@H](N)C3=CCC=CC3)C(=O)N2[C@H]1c1nnn[nH]1` [D-2-amino-2-(1,4-cyclohexadienyl)acetyl, 6-(D-2-Amino-2-[1,4-cyclohexadienyl]acetamido)-2,2-dimethyl-3-(5-tetrazolyl)penam], for which the MIC is below 0.1 µg/mL.

In the case of `CC1(C)S[C@@H]2[C@H](NC(=O)CNC(=N)c3cccs3)C(=O)N2[C@H]1c1nnn[nH]1` [2-(2-thiophenecarboxamidino)acetyl], the MIC is below 0.1 µg/mL.

Regarding `CC1(C)S[C@@H]2[C@H](NC(=O)C(NC(=O)CSC3=NCCN3)c3ccccc3)C(=O)N2[C@H]1c1nn[nH]n1` (stereo partly shown) [6-(2-[2-(Δ^1 -Imidazolin-2-ylthio)acetamido]-2-phenylacetamido)-2,2-dimethyl-3-(5-tetrazolyl)penam], the MIC is below 0.1 µg/mL.

For `CC1(C)S[C@@H]2[C@H](NC(=O)[C@H](NC(=O)NC(N)=O)c3ccccc3)C(=O)N2[C@H]1c1nnn[nH]1` [D-2-allophanamido-2-phenylacetyl, 6-(D-2-Allophanamido-2-phenylacetamido)-2,2-dimethyl-3-(5-tetrazolyl)penam], the MIC is below 0.1 µg/mL.

With `CC1(C)S[C@@H]2[C@H](NC(=O)[C@H](NC(=O)CNC(=N)c3nc4ccccc4[nH]3)c3ccccc3)C(=O)N2[C@H]1c1nnn[nH]1`, the MIC is below 0.1 µg/mL.

Regarding `CC1(C)S[C@@H]2[C@H](NC(=O)CNC(=O)NC(=N)c3ccccc3)C(=O)N2[C@H]1c1nnn[nH]1` [2-(3-[benzimidoyl]ureido)-acetyl], the MIC is below 0.1 µg/mL.

`CC1(C)S[C@@H]2[C@H](NC(=O)C(=O)Cc3ccccc3)C(=O)N2[C@H]1c1nnn[nH]1` [phenylpyruvoyl, 6-Phenylpyruvamido-2,2-dimethyl-3-(5-tetrazolyl)penam]: the MIC was below 0.1 µg/mL.

As to `CC1(C)S[C@@H]2[C@H](NC(=O)[C@H](NC(=O)CCNC(=O)c3ccco3)c3ccccc3)C(=O)N2[C@H]1c1nnn[nH]1`, the MIC is below 0.1 µg/mL.

Regarding `CC1(C)S[C@@H]2[C@H](NC(=O)[C@H](NC(=S)Nc3ccccc3)c3ccccc3)C(=O)N2[C@H]1c1nnn[nH]1` [D-2-(3-phenylthioureido)-2-phenylacetyl, 6-(D-2-[3-Phenylthioureido]-2-phenylacetamide)-2,2-dimethyl-3-(5-tetrazol)penam], the MIC is below 0.1 µg/mL.

In the case of `CC1(C)S[C@@H]2[C@H](NC(=O)Cc3ccccc3CN=[N+]=[N-])C(=O)N2[C@H]1c1nnn[nH]1` [2-(2-azidomethylphenyl)acetyl, 6-(2-[2-Azidomethylphenyl]acetamido)-2,2-dimethyl-3-(5-tetrazolyl)penam], the MIC is at most 0.1 µg/mL.

In the case of `CC1(C)S[C@@H]2[C@H](NC(=O)[C@H](NC(=O)Nc3ccccc3)c3ccccc3)C(=O)N2[C@H]1c1nnn[nH]1` [D-2-(3-phenylureido)-2-phenylacetyl], the MIC is below 0.1 µg/mL.

As to `CC1(C)S[C@@H]2[C@H](NC(=O)[C@H](N)c3cccc(N)c3)C(=O)N2[C@H]1c1nnn[nH]1` [D-2-amino-(3-aminophenyl)acetyl, 6-(D-2-Amino-2-[3-aminophenyl]acetamido)-2,2-dimethyl-3-(5-tetrazolyl)penam], the MIC was below 0.1 µg/mL.

For `CC1(C)S[C@@H]2[C@H](NC(=O)[C@H](NC(=O)NC(=O)C3CC3)c3ccccc3)C(=O)N2[C@H]1c1nn[nH]n1`, the MIC is below 0.1 µg/mL.

Turning to `CCNC(=O)N[C@@H]1C(=O)N2[C@@H]1SC(C)(C)[C@@H]2c1nnn[nH]1` [3-ethylcarbamoyl, 6-(3-ethylureido)-2,2-dimethyl-3-(5-tetrazolyl)penam], the MIC is below 0.1 µg/mL.

On to `CC1(C)S[C@@H]2[C@H](NC(=O)[C@H](NC(=O)c3ccco3)c3ccccc3)C(=O)N2[C@H]1c1nnn[nH]1` [D-2-(2-furancarboxamido)-2-phenylacetyl], for which the MIC is 0.1 µg/mL (≈ 0.214 µM).

As for `CC1(C)S[C@@H]2[C@H](NC(=O)[C@H](NC(=O)CN)c3ccc(O)cc3)C(=O)N2[C@H]1c1nnn[nH]1` [6-(D-2-[2-aminoacetamido]-2-[4-hydroxyphenyl]acetamido)-2,2-dimethyl-3-(5-tetrazolyl)penam], the MIC is below 0.1 µg/mL.

With `CC1(C)S[C@@H]2[C@H](NC(=O)[C@H](NC(=O)NC(=O)c3cccnc3)c3ccccc3)C(=O)N2[C@H]1c1nn[nH]n1`, the MIC was 0.1 µg/mL (≈ 0.192 µM).

`CC1(C)S[C@@H]2[C@H](NC(=O)[C@H](NC(=O)C(=Cc3ccc(Cl)cc3)C(=O)O)c3ccccc3)C(=O)N2[C@H]1c1nnn[nH]1` [6-(D-2-[2-carboxy-2(p-chlorophenyl)acrylamido]-2-phenylacetamido)-2,2-dimethyl-3-(5-tetrazolyl)penam]: the MIC is below 0.1 µg/mL.

`CC1(C)S[C@@H]2[C@H](NC(=O)[C@H](NC(=O)c3ccc[nH]3)c3ccccc3)C(=O)N2[C@H]1c1nnn[nH]1`: the MIC is below 0.1 µg/mL.

As for `CC1(C)S[C@@H]2[C@H](NC(=O)Cc3ccc(CN)cc3)C(=O)N2[C@H]1c1nnn[nH]1` [2-(4-aminomethylphenyl)acetyl, 6-(2-[4-Aminomethylphenyl]acetamido)-2,2-dimethyl-3-(5-tetrazolyl)penam], the MIC is below 0.1 µg/mL.

Still in this assay, the particulars now being: Streptococcus pyogenes; Table II; two-fold serial dilution, Brain-Heart Infusion broth, overnight; read-out: MIC vs. Strep. pyogenes.
As to `CC1(C)S[C@@H]2[C@H](NC(=O)Cc3ccccc3CC(=O)O)C(=O)N2[C@H]1c1nnn[nH]1` [2-(2-[carboxymethyl]phenyl)acetyl, 6-(2-[2-(Carboxymethyl)phenyl]acetamido)-2,2-dimethyl-3-(5-tetrazolyl)penam], the MIC is 0.2 µg/mL (≈ 0.48 µM).

Regarding `CC1(C)S[C@@H]2[C@H](NC(=O)[C@H](NC(=O)CNC(=N)c3cc(S(N)(=O)=O)cc(S(N)(=O)=O)c3)c3ccccc3)C(=O)N2[C@H]1c1nnn[nH]1`, the MIC turned out to be 0.004 µg/mL (≈ 0.00578 µM).

For the compound `CC1(C)S[C@@H]2[C@H](NC(=O)[C@H](NC(=O)COCC(=O)O)c3ccccc3)C(=O)N2[C@H]1c1nnn[nH]1` [6-(D-2-[Carboxymethoxy]acetamido-2-phenylacetamido)-2,2-dimethyl-3-(5-tetrazolyl)penam], the MIC was determined as 0.2 µg/mL (≈ 0.409 µM).

As for `CC1(C)S[C@@H]2[C@H](NC(=O)[C@H](NC(=O)NC(=O)c3ccncc3)c3ccccc3)C(=O)N2[C@H]1c1nn[nH]n1`, the MIC worked out at 0.2 µg/mL (≈ 0.383 µM).

As for `CC1(C)S[C@@H]2[C@H](NC(=O)CSCc3ccccc3)C(=O)N2[C@H]1c1nnn[nH]1` [2-(benzylthio)acetyl], the MIC was 0.2 µg/mL (≈ 0.494 µM).

As for `CC1(C)S[C@@H]2[C@H](NC(=O)[C@H](NC(=O)CNC(=O)NC(=N)NCC3CCCCC3)c3ccccc3)C(=O)N2[C@H]1c1nn[nH]n1`, the minimum inhibitory concentration (MIC) was determined as 0.2 µg/mL (≈ 0.327 µM).

As to `CC1(C)S[C@@H]2[C@H](NC(=O)[C@H](NC(=O)CCNC(=N)c3cc[n+]([O-])cc3)c3ccccc3)C(=O)N2[C@H]1c1nnn[nH]1`, the MIC is 3.12 µg/mL (≈ 5.53 µM).

On to `CC1(C)S[C@@H]2[C@H](NC(=O)[C@H](NC(=O)COc3ccccc3)c3ccc(O)cc3)C(=O)N2[C@H]1c1nnn[nH]1` [6-(D-2-[2-Phenoxyacetamido]-2-[4-hydroxyphenyl]acetamido)-2,2-dimethyl-3-(5-tetrazol-5-yl)penam], for which the MIC stood at 0.2 µg/mL (≈ 0.382 µM).

Regarding `C/C(CN)=C(\C(=O)NC1C(=O)N2C(c3nnn[nH]3)C(C)(C)S[C@H]12)c1ccccc1` (stereo partly shown) [3-aminomethyl-2-phenylisocrotonoyl, 6-(3-Aminomethyl-2-phenylisocrotonamido)-2,2-dimethyl-3-(5-tetrazolyl)penam], the MIC came out at 12.5 µg/mL (≈ 30.2 µM).
